Results reported in patent US7910611B2, “Therapeutic agent for restenosis” (Kyowa Hakko Kirin Co., Ltd., priority 2005, dated 2011).
Where a name gives a salt, the structure may show the parent alone.

Assays:
[1] = tested on: normal human aortic smooth muscle cells; assay: Cell growth inhibition tests against human vascular smooth muscle cells (XTT); format: cell-based; details: for GI50: read-out: growth inhibitory activity in terms of the GI50 value (concentration of 50% growth inhibition), cultured 72 hours with test compound, XTT, absorbance at 490 nm
Protocol: Cell Growth Inhibition Tests Against Human Vascular Smooth Muscle Cells
As human vascular smooth muscle cells, normal human aortic smooth muscle cells (Cambrex, catalog No. C-2571) were used. HuMedia-SB2 basal medium (Kurabo Industries, Ltd., catalog No. KS-2150S) containing 5% fetal bovine serum (Kurabo Industries, Ltd., catalog No. KS-6150), 0.5 ng/mL human recombinant epidermal growth factor (Kurabo Industries, Ltd., catalog No. KS-6150), 2 ng/mL human recombinant basic fibroblast growth factor (Kurabo Industries, Ltd., catalog No. KS-6150), 5 μg/mL insulin (Kurabo Industries, Ltd., catalog number KS-6150), 50 μg/mL gentamycin (Kurabo Industries, Ltd., catalog No. KS-6150), and 50 ng/mL amphotericin B (Kurabo Industries, Ltd., catalog No. KS-6150) was used for cell culture. The cells were cultured at 37° C. in a 5% carbon dioxide atmosphere.
The normal human aortic smooth muscle cells (1000 cells/well) were seeded in each well of 96-well plates (Nunc, catalog No. 167008), and cultured overnight. Test compounds diluted stepwise were added, and the cells were further cultured for 72 hours (final volume: 100 μL/well). Fifty μL XTT labeling mixture of Cell Proliferation Kit II (XTT) (Roche Diagnostics, catalog No. 1465015) was added to each well, and the plates were incubated at 37° C. After 4 hours, absorbance at 490 nm (reference wavelength: 655 nm) was measured with a plate reader (Molecular Device, SpectraMax 340PC^384). Growth ratios of the cells in the wells treated with the test compound was calculated based on the growth ratio of the cells in the control well treated with solvent (dimethyl sulfoxide (DMSO)) for 72 hours, which was defined as 100%.

For CCC(=O)N1N=C(NC(=O)C(C)(C)C)SC1(CCNS(C)(=O)=O)c1ccccc1 (single isomer, unassigned; (-)) [Compound b, (−)-N-[5-(2-Methanesulfonylaminoethyl)-5-phenyl-4-propionyl-4,5-dihydro-1,3,4-thiadiazol-2-yl]-2,2-dimethylpropanamide], the GI50 [1] was < 10 µM.

In the case of CN(C)CCCS(=O)(=O)NCC1(c2ccccc2)SC(NC(=O)C(C)(C)C)=NN1C(=O)C(C)(C)C (single isomer, unassigned; (-)) [Compound n, (−)-N-[5-(3-Dimethylaminopropanesulfonylaminomethyl)-4-(2,2-dimethylpropionyl)-5-phenyl-4,5-dihydro-1,3,4-thiadiazol-2-yl]-2,2-dimethylpropanamide], the GI50 [1] was < 10 µM and the melting point was 92 to 95 °C.

For CN(C)CCS(=O)(=O)NCC1(c2ccccc2)SC(NC(=O)C(C)(C)C)=NN1C(=O)C(C)(C)C (single isomer, unassigned; (-)) [Compound m, (−)-N-[5-(2-Dimethylaminoethanesulfonylaminomethyl)-4-(2,2-dimethylpropionyl)-5-phenyl-4,5-dihydro-1,3,4-thiadiazol-2-yl]-2,2-dimethylpropanamide], the “inhibitory activity compared with the corresponding racemic mixture (Compound 12)” value ([1]; optically active compound versus racemic mixture) was “more potent inhibitory activities”, the GI50 [1] was < 10 µM and the melting point was 101 to 104 °C.

In the case of CCNCCS(=O)(=O)NCC1(c2ccccc2)SC(NC(=O)C(C)(C)C)=NN1C(=O)C(C)(C)C (single isomer, unassigned; (-)) [Compound l, (−)-N-[4-(2,2-Dimethylpropionyl)-5-(2-ethylaminoethanesulfonylaminomethyl)-5-phenyl-4,5-dihydro-1,3,4-thiadiazol-2-yl]-2,2-dimethylpropanamide], the GI50 [1] was < 10 µM.

For CC(C)C(=O)N1N=C(NC(=O)C(C)(C)C)SC1(CCNS(C)(=O)=O)c1ccccc1 (single isomer, unassigned; (-)) [Compound d, (−)-N-[4-Isobutyryl-5-(2-methanesulfonylaminoethyl)-5-phenyl-4,5-dihydro-1,3,4-thia-diazol-2-yl]-2,2-dimethylpropanamide], the GI50 [1] was < 10 µM.

Work on CC(C)(C)C(=O)NC1=NN(C(=O)C(C)(C)C)C(CN)(c2ccccc2)S1 (stereo not shown) (as salt: hydrochloride) [Compound j, N-[5-Aminomethyl-4-(2,2-dimethylpropionyl)-5-phenyl-4,5-dihydro-1,3,4-thiadiazol-2-yl]-2,2-dimethylpropanamide] yielded a melting point of 175 to 182 °C.

In the case of CC(C)(C)C(=O)NC1=NN(C(=O)C(C)(C)C)C(CCNS(C)(=O)=O)(c2ccccc2)S1 (single isomer, unassigned; (-)) [Compound a, (−)-N-[4-(2,2-Dimethylpropionyl)-5-(2-methanesulfonylaminoethyl)-5-phenyl-4,5-dihydro-1,3,4-thiadiazol-2-yl]-2,2-dimethylpropanamide], the GI50 [1] was < 10 µM.

CC(=O)N1N=C(N2CCCC2=O)SC1(CCNS(C)(=O)=O)c1ccccc1 (stereo not shown) [Compound g, N-{2-[3-Acetyl-5-(2-oxopyrrolidin-1-yl)-2-phenyl-2,3-dihydro-1,3,4-thiadiazol-2-yl]-ethyl}methanesulfonamide] showed a melting point of 137 to 140 °C.

For C=CS(=O)(=O)NCC1(c2ccccc2)SC(NC(=O)C(C)(C)C)=NN1C(=O)C(C)(C)C (stereo not shown) [Compound k, N-[4-(2,2-Dimethylpropionyl)-5-ethenesulfonylaminomethyl-5-phenyl-4,5-dihydro-1,3,4-thiadiazol-2-yl]-2,2-dimethylpropanamide], the GI50 [1] was < 10 µM.

In the case of CC(=O)N1N=C(N2CCCCC2=O)SC1(CCNS(C)(=O)=O)c1ccccc1 (single isomer, unassigned; (-)) [Compound h, (−)-N-{2-[3-Acetyl-5-(2-oxopiperidino)-2-phenyl-2,3-dihydro-1,3,4-thiadiazol-2-yl]ethyl}methanesulfonamide], the GI50 [1] was < 10 µM and the melting point was 169 to 171 °C.

For CC(C)(C)C(=O)N1N=C(N2CCCC2=O)SC1(CCNS(C)(=O)=O)c1ccccc1 (single isomer, unassigned; (-)) [Compound c, (−)-N-{2-[3-(2,2-Dimethylpropionyl)-5-(2-oxopyrrolidin-1-yl)-2-phenyl-2,3-dihydro-1,3,4-thiadiazol-2-yl]ethyl}methanesulfonamide], the melting point was 107 to 110 °C.

CC(=O)N1N=C(NC(=O)C(C)(C)C)SC1(CCNS(C)(=O)=O)c1ccccc1 (single isomer, unassigned; (-)) [Compound f, (−)-N-[4-Acetyl-5-(2-methanesulfonylaminoethyl)-5-phenyl-4,5-dihydro-1,3,4-thiadiazol-2-yl]-2,2-dimethylpropanamide] gave a melting point of 187 to 190 °C.

For CC(C)(C)C(=O)NC1=NN(C(=O)C(C)(C)C)C(CCCC(=O)NCCO)(c2ccccc2)S1 (stereo not shown) [Compound o, 4-[3-(2,2-Dimethylpropionyl)-5-(2,2-dimethylpropionylamino)-2-phenyl-2,3-dihydro-1,3,4-thiadiazol-2-yl]-N-(2-hydroxyethyl)butanamide], the GI50 [1] was < 10 µM.

For CCNCCS(=O)(=O)NCCC1(c2ccccc2)SC(NC(=O)C(C)(C)C)=NN1C(=O)C(C)(C)C (stereo not shown) [Compound i, N-{4-(2,2-Dimethylpropionyl)-5-[2-(2-ethylaminoethanesulfonylamino)-ethyl]-5-phenyl-4,5-dihydro-1,3,4-thiadiazol-2-yl}-2,2-dimethylpropanamide], the GI50 [1] was < 10 µM.

With CCC(=O)N1N=C(N2CCCC2=O)SC1(CCNS(C)(=O)=O)c1ccccc1 (single isomer, unassigned; (-)) [Compound e, (−)-N-{2-[5-(2-Oxopyrrolidin-1-yl)-2-phenyl-3-propionyl-2,3-dihydro-1,3,4-thiadiazol-2-yl]ethyl}methanesulfonamide] the GI50 [1] was < 10 µM and the melting point was 188 to 191 °C.

With CC(C)(C)C(=O)NC1=NN(C(=O)C(C)(C)C)C(CN)(c2ccccc2)S1 (stereo not shown) [Compound j, N-[5-Aminomethyl-4-(2,2-dimethylpropionyl)-5-phenyl-4,5-dihydro-1,3,4-thiadiazol-2-yl]-2,2-dimethylpropanamide] the GI50 [1] was < 10 µM.

For CC(C)(C)C(=O)NC1=NN(C(=O)C(C)(C)C)C(CNS(=O)(=O)CCSCCN)(c2ccccc2)S1 (stereo not shown) [Compound 24, N-{5-[2-(2-Aminoethylsulfanyl)ethanesulfonylaminomethyl]-4-(2,2-dimethyl-propionyl)-5-phenyl-4,5-dihydro[1,3,4]thiadiazol-2-yl}-2,2-dimethyl-propionamide], the GI50 [1] was < 10 µM.
